In test [1] the target is T1, Muscarinic acetylcholine receptor M2 (Homo sapiens, UniProt P08172).
T1 sequence (P08172 whole entry): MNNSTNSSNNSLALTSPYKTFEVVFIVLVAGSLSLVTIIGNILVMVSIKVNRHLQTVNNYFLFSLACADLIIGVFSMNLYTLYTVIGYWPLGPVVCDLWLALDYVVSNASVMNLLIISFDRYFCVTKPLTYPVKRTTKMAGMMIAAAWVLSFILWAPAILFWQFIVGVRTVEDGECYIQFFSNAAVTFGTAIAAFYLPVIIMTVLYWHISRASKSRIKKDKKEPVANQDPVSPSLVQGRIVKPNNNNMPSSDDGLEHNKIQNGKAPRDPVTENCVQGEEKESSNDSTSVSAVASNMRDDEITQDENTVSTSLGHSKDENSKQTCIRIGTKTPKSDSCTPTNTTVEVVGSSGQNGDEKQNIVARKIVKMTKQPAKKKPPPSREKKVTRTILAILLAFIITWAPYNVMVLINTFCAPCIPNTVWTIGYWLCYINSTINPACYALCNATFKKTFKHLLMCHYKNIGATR
Put plainly: Dissociation constant for human Muscarinic acetylcholine receptor M2 was determined.

Test [2] deals with T2, Muscarinic acetylcholine receptor M2 (Rattus norvegicus, UniProt P10980).
T2 sequence (P10980 whole entry): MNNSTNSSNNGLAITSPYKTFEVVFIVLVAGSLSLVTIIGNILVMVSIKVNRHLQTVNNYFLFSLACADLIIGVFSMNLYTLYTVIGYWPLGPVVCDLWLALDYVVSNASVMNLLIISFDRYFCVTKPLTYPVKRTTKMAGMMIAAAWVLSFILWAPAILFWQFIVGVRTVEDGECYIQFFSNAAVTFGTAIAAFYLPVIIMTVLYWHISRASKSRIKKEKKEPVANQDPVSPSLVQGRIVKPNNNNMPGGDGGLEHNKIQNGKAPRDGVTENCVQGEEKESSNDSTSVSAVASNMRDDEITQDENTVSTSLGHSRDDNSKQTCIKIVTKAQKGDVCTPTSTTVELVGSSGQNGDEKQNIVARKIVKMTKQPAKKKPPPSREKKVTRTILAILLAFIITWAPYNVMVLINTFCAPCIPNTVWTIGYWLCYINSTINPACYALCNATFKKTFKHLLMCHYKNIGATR
Briefly: Dissociation constant for the blocking of brainstem muscarinic M2 receptor was reported. Type of test: tissue-based.

For test [3], the target named is T3, Muscarinic acetylcholine receptor M1 (Homo sapiens, UniProt P11229).
T3 sequence (P11229 whole entry): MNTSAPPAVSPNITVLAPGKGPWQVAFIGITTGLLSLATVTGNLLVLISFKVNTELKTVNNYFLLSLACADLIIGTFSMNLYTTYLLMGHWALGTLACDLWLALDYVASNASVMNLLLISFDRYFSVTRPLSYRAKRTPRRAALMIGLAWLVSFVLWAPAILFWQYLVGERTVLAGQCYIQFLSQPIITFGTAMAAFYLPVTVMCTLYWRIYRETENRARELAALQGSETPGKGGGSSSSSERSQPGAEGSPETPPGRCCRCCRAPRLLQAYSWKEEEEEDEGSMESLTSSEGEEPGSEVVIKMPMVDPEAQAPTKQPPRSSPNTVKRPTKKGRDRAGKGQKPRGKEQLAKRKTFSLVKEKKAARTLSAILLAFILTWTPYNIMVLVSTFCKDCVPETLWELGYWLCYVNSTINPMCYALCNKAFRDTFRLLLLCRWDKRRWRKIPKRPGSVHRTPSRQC
Briefly: Dissociation constant for human Muscarinic acetylcholine receptor M1 was determined.

Test [4] deals with T2, Muscarinic acetylcholine receptor M2. Briefly: Dissociation constant for the blocking of heart muscarinic M2 receptor was reported.
The target is the same in test [5]. Put plainly: Dissociation constant for the blocking of cardiac muscarinic M2 receptor was reported. The arrangement: species or system Heart.
The species entered for a further test is Rattus norvegicus. Put plainly: Ability to reverse oxotremorine-M mediated inhibition of evoked acetylcholine release from hippocampal tissue. The test is classed as functional, Hippocampus.
The target in test [6] is T4, Muscarinic acetylcholine receptor M4 (Mus musculus, UniProt P32211).
T4 sequence (P32211 whole entry): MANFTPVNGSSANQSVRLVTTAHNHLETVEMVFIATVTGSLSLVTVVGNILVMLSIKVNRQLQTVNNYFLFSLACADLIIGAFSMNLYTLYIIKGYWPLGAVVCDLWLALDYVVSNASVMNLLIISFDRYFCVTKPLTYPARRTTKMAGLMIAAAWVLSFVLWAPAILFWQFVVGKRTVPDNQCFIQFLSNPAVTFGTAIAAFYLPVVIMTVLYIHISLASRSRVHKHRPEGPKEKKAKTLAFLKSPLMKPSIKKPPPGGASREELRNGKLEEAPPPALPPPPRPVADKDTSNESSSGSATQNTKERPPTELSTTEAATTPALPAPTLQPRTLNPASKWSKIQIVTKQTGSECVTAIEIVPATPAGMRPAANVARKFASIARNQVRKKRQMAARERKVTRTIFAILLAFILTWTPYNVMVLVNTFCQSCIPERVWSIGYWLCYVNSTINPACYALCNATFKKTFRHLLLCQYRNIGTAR
Put plainly: Potency assessed to inhibit cAMP levels in N1E-115 neuroblastoma cells, for blocking oxotremorine-M in functional assay for Muscarinic acetylcholine receptor M4. The test is classed as cell-based.

In test [7] the target is T5, Muscarinic acetylcholine receptor M4 (Rattus norvegicus, UniProt P08485).
T5 sequence (P08485 whole entry): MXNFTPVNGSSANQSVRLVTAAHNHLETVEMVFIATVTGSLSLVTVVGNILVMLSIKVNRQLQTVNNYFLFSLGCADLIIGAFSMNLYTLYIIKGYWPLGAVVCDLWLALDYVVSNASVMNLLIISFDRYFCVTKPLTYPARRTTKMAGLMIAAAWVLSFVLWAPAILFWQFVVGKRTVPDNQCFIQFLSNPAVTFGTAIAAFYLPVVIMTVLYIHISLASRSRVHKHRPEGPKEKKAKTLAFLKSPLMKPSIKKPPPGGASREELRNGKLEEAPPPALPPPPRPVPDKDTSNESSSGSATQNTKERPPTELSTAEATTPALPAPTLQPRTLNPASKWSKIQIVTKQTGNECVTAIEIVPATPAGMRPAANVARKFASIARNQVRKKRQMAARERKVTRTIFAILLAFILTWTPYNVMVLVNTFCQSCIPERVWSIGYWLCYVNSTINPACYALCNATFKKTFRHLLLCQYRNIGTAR
Briefly: Potency assessed to inhibit cAMP levels in rat striatum, for blocking oxotremorine-M, in functional assay for Muscarinic acetylcholine receptor M4. Type of test: tissue-based. A general note: cAMP levels reflect the balance of adenylyl cyclase and phosphodiesterase activity.

The source of these data is ChEMBL document CHEMBL1126442 (Bioorg Med Chem Lett, 1992).

The term Kd denotes the free concentration of one partner at which half of the binding sites on the other are occupied at equilibrium, for simple one-to-one binding.

Molecules are shown by their SMILES.

As for `C[C@@H]1OC(=O)C[C@H]1C/C=C/[C@H]1CCCCN1C`, the Kd in test [1] was determined as 4400 nM; in test [2], 1210 nM; in test [3], 9700 nM.
Take `C[C@@H]1OC(=O)[C@H]2C[C@H]3CCCC[C@@H]3[C@@H](/C=C/[C@H]3CCC[C@H](C)N3C)[C@@H]12` [HIMBACINE]: the Kd in test [4] stood at 6.9 nM; in test [2], 4.6 nM; in test [5] it was 3 nM; in the test filed under Rattus norvegicus, 8.5 nM; in test [6] it was 11.3 nM; in test [7], 5.4 nM.
